Key:
PIP4K2A = target: T1, PIP4K2A (Homo sapiens, UniProt P48426); test: Kinase Assay-PIP4K2 A (ADP-Glo); format: biochemical
T1 construct: made in house; host or cells: E. coli
T1 sequence (P48426 1-406): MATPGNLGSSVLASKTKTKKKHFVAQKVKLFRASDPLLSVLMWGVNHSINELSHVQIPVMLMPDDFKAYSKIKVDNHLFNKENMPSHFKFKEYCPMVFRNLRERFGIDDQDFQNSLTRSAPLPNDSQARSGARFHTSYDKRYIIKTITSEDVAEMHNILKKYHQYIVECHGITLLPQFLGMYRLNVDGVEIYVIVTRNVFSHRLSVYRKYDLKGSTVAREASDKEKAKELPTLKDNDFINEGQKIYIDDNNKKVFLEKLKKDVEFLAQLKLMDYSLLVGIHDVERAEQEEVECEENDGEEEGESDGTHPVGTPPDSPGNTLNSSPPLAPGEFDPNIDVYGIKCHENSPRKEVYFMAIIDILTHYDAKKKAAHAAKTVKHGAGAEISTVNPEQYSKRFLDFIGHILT
Description: Dilution series of the compounds were prepared in DMSO at 100 times the final assay concentration (n1=n0/3 in 10 points). The compounds were further diluted to three times the assay concentration in assay buffer (20 mM MOPS pH 7.2, 25 mM magnesium chloride, 0.005% Tween 20). 6 μL of the diluted compounds were added to a 384 well assay plate followed by 9 μL of a mix consisting of 4 nM PIP4K2A (full length protein, SignalChem) and 100 μM PI(5)P diC8 (Tebu-Bio). Enzyme and compounds were pre-incubated at room temperature for 15 minutes.
Then 3 μL of a solution containing 60 μM ATP (Promega) in assay buffer was added to the wells containing compound and enzyme and mixing was performed by pipetting several times. The reaction was incubated at room temperature for 1 h. Then 18 μL of ADP-Glo™ Reagent (Promega) was added to stop the kinase reaction and deplete the unconsumed ATP, mixing was performed by pipetting several times. The plate was incubated at room temperature for 40 minutes before addition of 36 μL of Kinase Detection Reagent (Promega) to convert ADP to ATP and introduce luciferase and luciferin to detect ATP. The reaction was incubated at room temperature for 40 minutes before the luminescence was measured in a in a Victor 3V 1420 multilabel counter (Perkin Elmer).
Percent inhibition of the compounds as compared to dimethyl sulfoxide treated control samples was calculated. Compound concentration versus percent inhibition were fitted to generate IC50 values. […]

PIP4K2 B = target: T2, PIP4K2 B (Homo sapiens, UniProt P78356); test: Kinase Assay-PIP4K2 B (Transcreener FI); format: biochemical
T2 construct: made in house; host or cells: E. coli
T2 sequence (P78356 1-416): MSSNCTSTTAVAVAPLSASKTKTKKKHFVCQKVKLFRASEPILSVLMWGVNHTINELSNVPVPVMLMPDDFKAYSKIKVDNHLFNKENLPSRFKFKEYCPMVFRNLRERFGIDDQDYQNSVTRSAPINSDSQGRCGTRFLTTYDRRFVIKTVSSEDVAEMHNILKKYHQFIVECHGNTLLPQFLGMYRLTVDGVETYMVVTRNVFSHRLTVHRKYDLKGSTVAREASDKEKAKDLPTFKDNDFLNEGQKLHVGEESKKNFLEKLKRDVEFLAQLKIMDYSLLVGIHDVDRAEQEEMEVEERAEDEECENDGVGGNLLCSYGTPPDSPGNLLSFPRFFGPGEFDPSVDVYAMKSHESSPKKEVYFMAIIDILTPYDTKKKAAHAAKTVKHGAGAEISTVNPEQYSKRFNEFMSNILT
Description: GST tagged PIP4KtypeIIA and B enzymes were overexpressed in E. Coli and purified to >80% homogeneity. Phosphatidyl inositol-5-phosphate (PI5P, Cat. #850152, Avanti Polar Lipids Inc.) was used as the lipid substrate and phosphatidyl ethanolamine (DOPE 18:1, Cat. #850725, Avanti Polar Lipids Inc.) was used as the carrier lipid for assays. Ultrapure ATP and GTP was purchased from Bellbrooke Labs. ADP Glo reagents were obtained from Promega. Transcreener FI reagent was obtained from Bellbrooke labs.
• 1. HEPES buffer mix: 200 mM HEPES pH 7.4, 50 mM MgCl2, 0.05% v/v triton X 100 • 2. HNE buffer: 20 mM HEPES, pH 7.4, 100 mM NaCl, 0.5 mM EGTA • 3. H:E buffer: 30 mM HEPES, pH 7.4, 1 mM EGTA
GST-tagged PIP4KtypeIIB (3.4 μl, 2.77 mg/mL) was diluted to 5 mL using HNE buffer to yield 5× enzyme stock (25 nM)
Lipid Preparation: In a 10 mL pyrex glass vial, […] were suspended in 2.5 mL of HEPES buffer mix and 2.5 mL of H:E buffer. The contents were mixed and sonicated for 3 min to yield a translucent lipid stock.
Compound Preparation: Compounds were stored as 5 mM stocks in neat DMSO as room temperature in glass vials. 5 mM stocks were diluted to 2 mM and then serially diluted (3×) in neat DMSO in 96 well polypropylene plates. From the serially diluted stocks, 3 μL was delivered into 250 μL of 25% DMSO (in water) to generate 5× compound stocks. Typically, the highest compound conc. was 24 μM.
The assay volume was kept at 25 μL. To each well of the reaction plate, 10 μL of lipid stock (1:1 ratio PI5P:DOPE) was delivered. This was followed by the addition of 5 μL of compound in 25% DMSO. Then, to each well, 5 μL of 25 nM (5×) typeIIB enzyme was delivered. The contents were mixed well and incubated for 1 h at 27° C. After 1 h, reaction was initiated by adding 5 μL of 500 μM GTP and the contents were mixed well with a multi-channel pipetteman. The final concentration of the reagents are as follows: 50 mM HEPES, pH 7.3, 10 mM MgCl2, 20 mM NaCl, 0.01% v/v triton-X100, 5% DMSO, 100 μM GTP, 80 μM (2 μg) PI5P, 2 μg DOPE, and 5 nM PIP4KIIB Typically, the highest conc. of compounds was 4.8 μM and the lowest conc. was 0.
After 2 h, the reaction was quenched by adding 25 μL of transcreener FI reagent. The contents were incubated at rt for 1 h and the Fluorescence (Ex: 584 Em: 623) was read using Molecular Devices Paradigm plate reader. […] The blanks were averaged and subtracted from all other wells. Using a calibration curve, RFU was converted to μM GDP (product). IC50 was calculated by plotting the residual activity (expressed as % No inhibitor control) vs. log [Inh. conc.].

MOLM-16 = MOLM-16 EC50 assay; format: cell-based; settings: MOLM16

Q: For `O=C(O)CNc1nc(Nc2cnc3c(c2)N2C(=O)CC[C@H]2CO3)ncc1-c1ccc(N2CCCC2=O)cc1` [Compound 1, 2-[(2-{[(6S)-3-oxo-8-oxa-2,10-diazatricyclo[7.4.0.0^2,6]trideca-1(9),10,12-trien-12-yl]amino}-5-[4-(2-oxopyrrolidin-1-yl)phenyl]pyrimidin-4-yl)amino]acetic acid], which IC50 (PIP4K2A) is on record?
A: Its IC50 is at most 0.001 µM.

Q: What about the IC50 (PIP4K2 B) of the same compound?
A: The IC50 was at most 0.001 µM.

Q: What about the EC50 (MOLM-16) of the same compound?
A: The EC50 was over 1 µM.

Q: Which results are given for `CN(c1nc(Nc2cnc3c(c2)N2C(=O)CC[C@H]2CO3)ncc1-c1ccc(N2CCCC2=O)cc1)[C@H]1CCOC1` [Compound 2, (6S)-12-[(4-{methyl[(3S)-oxolan-3-yl]amino}-5-[4-(2-oxopyrrolidin-1-yl)phenyl]pyrimidin-2-yl)amino]-8-oxa-2,10-diazatricyclo[7.4.0.0^2,6]trideca-1(13),9,11-trien-3-one]?
A: IC50 (PIP4K2A): ≤ 0.001 µM; IC50 (PIP4K2 B): 0.001 to 0.01 µM; EC50 (MOLM-16): > 1 µM

Q: Which results are given for `CN(c1nc(Nc2cnc3c(c2)N2C(=O)CC[C@H]2CO3)ncc1-c1ccc(N2CCCC2=O)cc1)C1CCOC1` (stereo partly drawn) [Compound 3, (6S)-12-({4-[methyl(oxolan-3-yl)amino]-5-[4-(2-oxopyrrolidin-1-yl)phenyl]pyrimidin-2-yl}amino)-8-oxa-2,10-diazatricyclo[7.4.0.0^2,6]trideca-1(13),9,11-trien-3-one]?
A: IC50 (PIP4K2A): ≤ 0.001 µM; IC50 (PIP4K2 B): 0.001 to 0.01 µM; EC50 (MOLM-16): > 1 µM

Q: `CN(c1nc(Nc2cnc3c(c2)N2C(=O)CC[C@H]2CO3)ncc1-c1ccc(N2CCCC2=O)cc1)[C@H]1C[C@H](O)C1` [Compound 4, (6S)-12-[(4-{methyl[(1r,3r)-3-hydroxycyclobutyl]amino}-5-[4-(2-oxopyrrolidin-1-yl)phenyl]pyrimidin-2-yl)amino]-8-oxa-2,10-diazatricyclo[7.4.0.0^2,6]trideca-1(13),9,11-trien-3-one] was tested. Which IC50 (PIP4K2A) did it give?
A: The IC50 was 0.001 to 0.01 µM.

Q: What about the IC50 (PIP4K2 B) of the same compound?
A: The IC50 was 0.001 to 0.01 µM.

Q: What about the EC50 (MOLM-16) of the same compound?
A: Its EC50 is over 1 µM.

Q: With `COc1nc(Nc2cnc3c(c2)N(C(=O)OCCN(C)C)CCO3)ncc1-c1ccc(N2CCCC2=O)cc1` [Compound 5, 2-(dimethylamino)ethyl 7-({4-methoxy-5-[4-(2-oxopyrrolidin-1-yl)phenyl]pyrimidin-2-yl}amino)-1H,2H,3H-pyrido[2,3-b][1,4]oxazine-1-carboxylate] as the compound, how does the IC50 (PIP4K2A) read?
A: Its IC50 is 0.001 to 0.01 µM.

Q: And the IC50 (PIP4K2 B)?
A: The IC50 was 0.001 to 0.01 µM.

Q: What about the EC50 (MOLM-16) of the same compound?
A: Its EC50 is 0.01 to 0.1 µM.

Q: How did the IC50 (PIP4K2A) turn out when `O=C1CCCN1c1ccc(-c2cnc(Nc3cnc4c(c3)N3C(=O)CC[C@H]3CO4)nc2OCCN2CCOCC2)cc1` [Compound 6, (6S)-12-({4-[2-(morpholin-4-yl)ethoxy]-5-[4-(2-oxopyrrolidin-1-yl)phenyl]pyrimidin-2-yl}amino)-8-oxa-2,10-diazatricyclo[7.4.0.0^2,6]trideca-1(9),10,12-trien-3-one] was run?
A: Its IC50 is 0.001 to 0.01 µM.

Q: And the IC50 (PIP4K2 B)?
A: The IC50 was 0.001 to 0.01 µM.

Q: And the EC50 (MOLM-16)?
A: Its EC50 is 0.01 to 0.1 µM.

Q: Which results are given for `CN(c1nc(Nc2cnc3c(c2)N2C(=O)CC[C@H]2CO3)ncc1-c1ccc(N2CCCC2=O)cc1)[C@@H]1CCOC1` [Compound 7, (6S)-12-[(4-{methyl[(3R)-oxolan-3-yl]amino}-5-[4-(2-oxopyrrolidin-1-yl)phenyl]pyrimidin-2-yl)amino]-8-oxa-2,10-diazatricyclo[7.4.0.0^2,6]trideca-1(13),9,11-trien-3-one]?
A: IC50 (PIP4K2A): 0.001 to 0.01 µM; IC50 (PIP4K2 B): 0.001 to 0.01 µM; EC50 (MOLM-16): > 1 µM

Q: Which IC50 (PIP4K2A) does the source give for `COc1nc(Nc2cncc(N3CCC(N(C)C)CC3)c2)ncc1-c1ccc(-c2nnccc2C)cc1` [Compound 17, N-{5-[4-(dimethylamino)piperidin-1-yl]pyridin-3-yl}-4-methoxy-5-[4-(4-methylpyridazin-3-yl)phenyl]pyrimidin-2-amine] here?
A: The IC50 was 0.01 to 0.1 µM.

Q: What about the IC50 (PIP4K2 B) of the same compound?
A: Its IC50 is 0.01 to 0.1 µM.

Q: With `CCN(CC)CCOC(=O)N1CCOc2ncc(Nc3ncc(-c4ccc(N5C(=O)CC[C@H]5C)cc4)cn3)cc21` [Compound 22, 2-(diethylamino)ethyl 7-[(5-{4-[(2R)-2-methyl-5-oxopyrrolidin-1-yl]phenyl}pyrimidin-2-yl)amino]-1H,2H,3H-pyrido[2,3-b][1,4]oxazine-1-carboxylate] as the compound, how does the IC50 (PIP4K2A) read?
A: The IC50 was 0.01 to 0.1 µM.

Q: And the IC50 (PIP4K2 B)?
A: Its IC50 is 0.01 to 0.1 µM.

Q: `CCN(CC)CCOC(=O)N1CCOc2ncc(Nc3ncc(-c4ccc(N5CCCC5=O)cc4)cn3)cc21` [Compound 23, 2-(diethylamino)ethyl 7-({5-[4-(2-oxopyrrolidin-1-yl)phenyl]pyrimidin-2-yl}amino)-1H,2H,3H-pyrido[2,3-b][1,4]oxazine-1-carboxylate] was tested. Which IC50 (PIP4K2A) did it give?
A: Its IC50 is 0.01 to 0.1 µM.

Q: What about the IC50 (PIP4K2 B) of the same compound?
A: The IC50 was 0.01 to 0.1 µM.

Q: What does the source list for `CCN(CC)CCN(C)C(=O)N1CCOc2ncc(Nc3ncc(-c4ccc(N5C(=O)CC[C@H]5C)cc4)c(OC)n3)cc21` [Compound 24, N-[2-(diethylamino)ethyl]-7-[(4-methoxy-5-{4-[(2R)-2-methyl-5-oxopyrrolidin-1-yl]phenyl}pyrimidin-2-yl)amino]-N-methyl-1H,2H,3H-pyrido[2,3-b][1,4]oxazine-1-carboxamide]?
A: IC50 (PIP4K2A): 0.1 to 1 µM; IC50 (PIP4K2 B): 0.01 to 0.1 µM

Q: Which results are given for `CCN(CC)CCN(C)C(=O)N1CCOc2ncc(Nc3ncc(-c4ccc(N5C(=O)CC[C@H]5C)cc4)cn3)cc21` [Compound 25, N-[2-(diethylamino)ethyl]-N-methyl-7-[(5-{4-[(2R)-2-methyl-5-oxopyrrolidin-1-yl]phenyl}pyrimidin-2-yl)amino]-1H,2H,3H-pyrido[2,3-b][1,4]oxazine-1-carboxamide]?
A: IC50 (PIP4K2A): 0.1 to 1 µM; IC50 (PIP4K2 B): 0.1 to 1 µM

Q: What does the source list for `CP(C)(=O)c1ccc(-c2ccc(Nc3cnc4c(c3)N3C(=O)CC[C@H]3CO4)nc2)cc1` [Compound 27, (6S)-12-({5-[4-(dimethylphosphoryl)phenyl]pyridin-2-yl}amino)-8-oxa-2,10-diazatricyclo[7.4.0.0^2,6]trideca-1(9),10,12-trien-3-one]?
A: IC50 (PIP4K2A): > 1 µM; IC50 (PIP4K2 B): > 1 µM

Reference: patent publication US12006332B2, “Aminopyrimidine derivatives as phosphatidylinositol phosphate kinase inhibitors” (HiberCell, Inc., priority 2019, dated 2024)
